Assay results: patent US9539349B2, “Formulation, apparatus and method for stabilizing radiopharmaceuticals” (Siemens Medical Solutions USA, Inc., priority 2010, dated 2017)
Read-outs that look alike come from different tables or passages of the source.

Tests used:
[1] = Radiochemical purity / percent stability of aged radiopharmaceutical solutions by radio-analytical HPLC; details: for % stability 3 hr: [F-18]HX4 16.2 mCi/mL; for RCP % 1.5 hrs post dispensing / RCP % 4 hrs post dispensing: FLT; for % stability 4.0 hr: [F-18]FLT 126.3 mCi/mL (text: 103 mCi/mL); for % stability 5.5 hr: [F-18]FLT 127 mCi/mL; for % stability 2.25 hr: [F-18]BMS 747158-02 12 mCi/mL, 10 vol. % EtOH:water
[2] = test system: proximal renal tubes in kidneys; details: dog, in vivo
[3] = test system: proximal renal tubes in kidneys; details: rat, in vivo
[4] = Excipient screen: protective factor (PF) for [F-18]FLT in argon sparged vials; details: in the absence of oxygen, in the presence of argon
[5] = Hydrogen peroxide concentration by peroxide test strips; format: physicochemical

With CC(C)[C@@H](C(=O)N[C@@H](Cc1ccc(OCC[18F])cc1)C(=O)O)n1cc(COc2ccc3nc(S(N)(=O)=O)sc3c2)nn1 [[F-18]VM4-037] the radiolytic stability ([1]; oxygen introduced into the sample vials) was “not undergo radiolysis” and the radiolytic stability ([1]; stored under an atmosphere of He) was “susceptible to radiolytical decomposition”.

With O=C(O)/C=C\C(=O)O [Maleic acid] the “predicted human dose equivalent for renal effect” value [2] was “approximately 15 mg/kg”, the “predicted human dose equivalent for renal effect, total dose” value [2] was 1000 mg and the “predicted human dose equivalent for renal effect” value [3] was “approximately 12.3 mg/kg”. For the same molecule, the “predicted human dose equivalent for renal effect, total dose” value [3] was 855 mg and the “stabilization of [F-18]FLT against radiolysis” value [4] was “highly stabilizing”.

In the case of O=[N+]([O-])c1nccn1Cc1cn(C(CO)C[18F])nn1 (centres unmarked) [[F-18]HX4], the “% stability 3 hr” value ([1]; 8 vol. % EtOH:phosphate (text: 10 vol. % EtOH:water), maleic acid + Argon) is reported as 8.66%, the “% stability 3 hr” value ([1]; 8 vol. % EtOH:phosphate (text: 10 vol. % EtOH:water), maleic acid + O2) is reported as 98.9% and the “% stability 3 hr” value ([1]; 8 vol. % EtOH:phosphate, Air (O2)) is reported as 94.06%. The “% stability 3 hr” value ([1]; 8 vol. % EtOH:phosphate, Argon) was 85.6%, the radiochemical integrity ([1]; [F-18]HX4 in 10 vol. % EtOH:water, headspace of oxygen, up to 4 hrs) was “remained radiochemically intact” and the radiochemical purity ([1]; [F-18]HX4 in 10 vol. % EtOH:water, sparged with Ar, after 1 hrs) was 0.28%. The radiochemical purity ([1]; [F-18]HX4 in 10 vol. % EtOH:water, sparged with Ar, after 4.0 hrs) was 0%.

In the case of Cc1cn([C@H]2C[C@H]([18F])[C@@H](CO)O2)c(=O)[nH]c1=O [[F-18]FLT], the stabilization by formulation ([1]; 8 vol. % EtOH:92 vol. % sodium phosphate (21 mM, pH=4.0-7.0) containing 0.01% (g/ml) maleic acid) is reported as “very efficient at stabilizing”, the “RCP % 1.5 hrs post dispensing” value ([1]; Air-purged vial) is reported as 100% and the “RCP % 4 hrs post dispensing” value ([1]; Air-purged vial) is reported as 100%. The “RCP % 1.5 hrs post dispensing” value ([1]; Argon purged vial) was 62.5%, the “RCP % 4 hrs post dispensing” value ([1]; Argon purged vial) was 38.5% and the “oxygen in finished product vial headspace at which FLT stability is improved” value ([1]; Greer and Adelphi vials) was greater than 10 vol. %. The radiochemical purity ([1]; [F-18]FLT 63.2 mCi/mL at EOS, dose vial sparged with Ar, after 1.5 hrs) was 62.5%, the radiochemical purity ([1]; [F-18]FLT 63.2 mCi/mL at EOS, dose vial sparged with Ar, after 4.0 hrs) was 38.57% and the radiochemical integrity ([1]; [F-18]FLT 63.2 mCi/mL at EOS, headspace of oxygen (syringe and sample vial), up to 4 hrs) was “remained radiochemically intact”. The “% stability 2 hr” value ([1]; [F-18]FLT 82 mCi/mL, 8 vol. % EtOH:phosphate, 0.01% (g/ml) maleic acid + Air headspace, rt) was 100%, the “% stability 3.25 hr” value ([1]; [F-18]FLT 118.7 mCi/mL, 8 vol. % EtOH:phosphate, maleic acid + Ar headspace) was 37.9% and the “% stability 4.0 hr” value ([1]; 8 vol. % EtOH:phosphate, Ar, no maleic acid) was 1.5%. For the same molecule, the “% stability 4.0 hr” value ([1]; 8 vol. % EtOH:phosphate, maleic acid (0.1 mg/mL) and Ar) was 88.7%, the “% stability 5.5 hr” value ([1]; 8 vol. % EtOH:phosphate, syringe sample, O2 (no headspace), no maleic acid) was 19.68% and the “% stability 5.5 hr” value ([1]; 8 vol. % EtOH:phosphate, syringe sample, maleic acid + O2 (no headspace)) was 97.13%. For the same molecule, the “% stability 5.5 hr” value ([1]; 8 vol. % EtOH:phosphate, vial, Air headspace, no maleic acid) was no less than 98%, the “% stability 5.5 hr” value ([1]; 8 vol. % EtOH:phosphate, vial, maleic acid + Air headspace (rt)) was no less than 98% and the radiochemical integrity ([1]; [F-18]FLT 129.5 mCi/mL at EOS, control dose vial with headspace of oxygen) was “remained radiochemically intact”. The radiochemical integrity ([1]; [F-18]FLT 129.5 mCi/mL at EOS, syringe with headspace of oxygen (20.95 vol. %)) was “remained radiochemically intact”, the radiochemical purity ([1]; [F-18]FLT 129.5 mCi/mL at EOS, syringe without headspace of oxygen, after 2.6 hrs) was 66.7% and the radiochemical purity ([1]; [F-18]FLT 129.5 mCi/mL at EOS, syringe without headspace of oxygen, after 3.8 hrs) was 32.7%. The “% stability 3.5 hr” value ([1]; [F-18]FLT 197.1 mCi/mL, 8 vol. % EtOH:phosphate, dose vial, air/O2 only) was 82.6%, the “stability (FIG. 2)” value ([1]; in the presence of argon without maleic acid) was “decomposes” and the “stability (FIG. 1)” value ([1]; in the presence of argon without oxygen) was “decomposes”. The “stability (FIG. 2)” value ([1]; in the presence of maleic acid in argon) was “stabilized”, the “stability (FIG. 1)” value ([1]; in the presence of oxygen) was “stabilized” and the “stability (FIG. 4)” value ([1]; in the presence of oxygen and maleic acid) was “further stabilized”. The “stability (FIG. 4)” value ([1]; in the presence of oxygen, once the oxygen is consumed) was “decomposes”, the period of stability ([1]; oxygen and maleic acid formulation, in some instances) was “about 18 hours” and the “strength up to which samples did not contain radiolyzed products” value ([1]; samples spiked with O2) was “up to 197 mCi/mL”. It also gave a hydrogen peroxide concentration ([5]; FLT sample 126.3 mCi/mL, containing maleic acid (argon)) of 0 ppm, a hydrogen peroxide concentration ([5]; FLT sample 126.3 mCi/mL, headspace of argon) of 0 ppm and a hydrogen peroxide concentration ([5]; FLT sample 127 mCi/mL, headspace of oxygen) of 5 ppm. For the same molecule, the hydrogen peroxide concentration ([5]; FLT sample 127 mCi/mL, headspace of oxygen and maleic acid) was 0.5-2.0 ppm.

With CC(C)(C)n1ncc(OCc2ccc(COCC[18F])cc2)c(Cl)c1=O [[F-18]BMS 747158-02] the “% stability 2.25 hr” value ([1]; Air/O2 (before sparge)) was 91% and the “% stability 2.25 hr” value ([1]; Argon (reformulated after sparge)) was 12%.
